Here are results for eleven molecules from US20100016285A1, “HETEROCYCLIDENE-N-(ARYL) ACETAMIDE DERIVATIVE” (MOCHIDA PHARMACEUTICAL CO., LTD., priority 2007, published 2010).

Molecules are shown by their SMILES.

T1 sequence (Q8NER1 whole entry): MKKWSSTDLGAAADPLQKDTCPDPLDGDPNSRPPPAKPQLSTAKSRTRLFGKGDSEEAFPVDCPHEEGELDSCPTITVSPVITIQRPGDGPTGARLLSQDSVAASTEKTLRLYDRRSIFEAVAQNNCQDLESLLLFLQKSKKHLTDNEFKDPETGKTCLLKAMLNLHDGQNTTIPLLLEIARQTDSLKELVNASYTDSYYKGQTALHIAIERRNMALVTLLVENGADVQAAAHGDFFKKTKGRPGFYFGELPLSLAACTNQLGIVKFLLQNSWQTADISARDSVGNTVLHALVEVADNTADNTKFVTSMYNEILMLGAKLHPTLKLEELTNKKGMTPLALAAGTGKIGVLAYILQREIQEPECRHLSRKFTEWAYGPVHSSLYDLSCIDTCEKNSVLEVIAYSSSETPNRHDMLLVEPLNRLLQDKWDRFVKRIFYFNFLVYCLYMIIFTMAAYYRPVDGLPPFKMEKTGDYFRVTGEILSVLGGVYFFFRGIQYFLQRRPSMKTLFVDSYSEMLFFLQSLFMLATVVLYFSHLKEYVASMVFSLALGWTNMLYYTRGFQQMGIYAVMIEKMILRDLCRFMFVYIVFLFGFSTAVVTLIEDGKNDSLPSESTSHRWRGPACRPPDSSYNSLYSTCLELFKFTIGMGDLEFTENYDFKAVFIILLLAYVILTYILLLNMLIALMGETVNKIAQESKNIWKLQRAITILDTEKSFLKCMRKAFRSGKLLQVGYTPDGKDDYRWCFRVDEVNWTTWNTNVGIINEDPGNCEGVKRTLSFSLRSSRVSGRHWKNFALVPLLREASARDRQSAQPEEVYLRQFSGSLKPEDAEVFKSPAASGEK

The assay concerns the target T1, human TRPV1 (Homo sapiens, UniProt Q8NER1).
T1 construct: expressed in transfected cells; host or cells: CHO-K1 cells, pCAGGS vector, clones selected by limiting dilution
The experiment in a line: Capsaicin-induced Ca influx in transformed CHO cells, FDSS-6000 (b-1), A2 value. The conditions noted are these: concentration shifting the capsaicin concentration-reaction curve two times rightward; CHO cells expressing TRPV1. The assay is classed as cell-based. The text has this: (1) Measurement of Capsaicin-Induced Ca Influx in a Transformed CHO Cell Line Expressing Human TRPV1
(a) Establishment of a Transformed CHO Cell Line Expressing Human and Rat TRPV1
Human and rat vanilloid receptor 1 (hTRPV1 and rTRPV1) cDNA was cloned from human brain and rat dorsal root ganglion, respectively. The cloned TRPV1 cDNA was incorporated in a pCAGGS vector. The vector was introduced to a CHO-K1 cell line, thus performing transformation. Clones obtained by limiting dilution were stimulated with capsaicin. Clones with a high responsiveness were selected using an increase in the Ca concentration as an indicator. The selected clones were used for the following experiment.
(b-1) Measurement of Ca Influx using FDSS-6000
The transformed CHO cells expressing human or rat TRPV1 were seeded in a 96-well plate (with black walls and transparent bottoms, manufactured by Greiner) at a density of 40,000 cells per well. The cells were cultured at 37° C. in 5% CO2 atmosphere for one night. A loading solution of FLIPR Calcium 3 assay kit (manufactured by Molecular Devices Corporation) containing 2.5 mmol/L of probenecid was then added to each of the wells in the same amount as the culture medium, and the cells were cultured at 37° C. for 60 minutes. For three minutes after the cells were stimulated with capsaicin (1 nmol/L to 1 μmol/L), the change of the intracellular Ca concentration was measured using FDSS-6000 (λex: 480 nm, λem: […], manufactured by Hamamatsu Photonics K.K.). The integrated values of the increase rate of the intracellular Ca concentration were calculated for a group treated with the compounds of the present invention and a group treated with a vehicle, thus allowing capsaicin concentration-reaction curves to be obtained. A concentration (A2 value) of each of the compounds of the present invention, at which the capsaicin concentration-reaction curve obtained when the cells were treated with the vehicle was shifted two times rightward, was calculated. The inhibitory effects of the test compounds were compared using this value as an indicator.
In the case of `CN1CC(=O)Nc2cc(NC(=O)/C=C3\CCCOc4cc(C(F)(F)F)ccc43)ccc21` [EXAMPLE 8, (E)-2-(8-trifluoromethyl-3,4-dihydrobenzo[b]oxepin-5 (2H)-ylidene)-N-(4-methyl-3,4-dihydro-2(1H)-quinoxalinon-7-yl)acetamide], the A2 value result is “A (A2 value of less than 100 nM)”. In the case of `O=C(/C=C1\CCCOc2cc(C(F)(F)F)ccc21)Nc1ccc2c(c1)NC(=O)C(CO)N2` (centres unmarked) [EXAMPLE 9, (E)-2-(8-trifluoromethyl-3,4-dihydrobenzo[b]oxepin-5(2H)-ylidene)-N-(3-hydroxymethyl-3,4-dihydro-2(1H)-quinoxalinon-7-yl)acetamide], the A2 value result is on record as “A (A2 value of less than 100 nM)”. For `CN1c2ccc(NC(=O)/C=C3\CCCOc4cc(C(F)(F)F)ccc43)cc2NC(=O)C1(C)C` [EXAMPLE 11, (E)-2-(8-trifluoromethyl-3,4-dihydrobenzo[b]oxepin-5(2H)-ylidene)-N-(3,3-dimethyl-4-methyl-3,4-dihydro-2(1H)-quinoxalinon-7-yl)acetamide] the value was “A (A2 value of less than 100 nM)”; for `O=C(/C=C1\CCCOc2cc(C(F)(F)F)ccc21)Nc1ccc2c(c1)NC(=O)OC2` [EXAMPLE 12, (E)-2-(8-trifluoromethyl-3,4-dihydrobenzo[b]oxepin-5(2H)-ylidene)-N-(1,4-dihydro-2H-3,1-benzoxadin-2-on-7-yl)acetamide], “A (A2 value of less than 100 nM)”. In the case of `COCCN1Cc2ccc(NC(=O)/C=C3\CCCOc4cc(C(F)(F)F)ccc43)cc2NC1=O` [EXAMPLE 16, (E)-2-(8-trifluoromethyl-3,4-dihydrobenzo[b]oxepin-5(2H)-ylidene)-N-(3-(2-methoxyethyl)-3,4-dihydro-2(1H)-quinazolinon-7-yl)acetamide] it was “A (A2 value of less than 100 nM)”; in that of `O=C(/C=C1\CCCOc2cc(C(F)(F)F)ccc21)Nc1ccc2c(c1)NS(=O)(=O)NC2` [EXAMPLE 17, (E)-2-(8-trifluoromethyl-3,4-dihydrobenzo[b]oxepin-5(2H)-ylidene)-N-(3,4-dihydro-2,2-dioxo-1-H-2,1,3-benzothiadiazin-7-yl)acetamide], “A (A2 value of less than 100 nM)”. For `O=C(/C=C1\CCCOc2cc(C(F)(F)F)ccc21)Nc1cccc2c1CCC(=O)N2CCO` [EXAMPLE 19, (E)-2-(8-trifluoromethyl-3,4-dihydrobenzo[b]oxepin-5(2H)-ylidene)-N-(1-(2-hydroxyethyl)-3,4-dihydro-2(1H)-quinolinon-5-yl)acetamide], the A2 value result is listed as “A (A2 value of less than 100 nM)”. As for `O=C(/C=C1\CCCOc2cc(C(F)(F)F)ccc21)Nc1cccc2c1OCC(=O)N2` [EXAMPLE 20, (E)-2-(8-trifluoromethyl-3,4-dihydrobenzo[b]oxepin-5(2H)-ylidene)-N-(2H-1,4-benzoxazin-3(4H)-on-8-yl)acetamide], the A2 value entry was “A (A2 value of less than 100 nM)”. For `O=C(/C=C1\CCCOc2cc(C(F)(F)F)ccc21)Nc1cccc2c1NCC(=O)N2` [EXAMPLE 21, (E)-2-(8-trifluoromethyl-3,4-dihydrobenzo[b]oxepin-5(2H)-ylidene)-N-(3,4-dihydro-2 (1H)-quinoxalinon-5-yl)acetamide] the value was “A (A2 value of less than 100 nM)”. In the case of `CN1CC(=O)Nc2cccc(NC(=O)/C=C3\CCCOc4cc(C(F)(F)F)ccc43)c21` [EXAMPLE 22, (E)-2-(8-trifluoromethyl-3,4-dihydrobenzo[b]oxepin-5(2H)-ylidene)-N-(3,4-dihydro-4-methyl-2 (1H)-quinoxalinon-5-yl)acetamide] it was “A (A2 value of less than 100 nM)”; in that of `CC1(C)C/C(=C\C(=O)Nc2ccc3c(c2)NC(=O)CC3)c2ccc(C(F)(F)F)cc2O1` [EXAMPLE 24, (E)-2-(7-trifluoromethyl-2,2-dimethylchroman-4-ylidene)-N-(3,4-dihydroquinolin-2(1H)-on-7-yl)acetamide], “A (A2 value of less than 100 nM)”.
